Tests used:
[1] = tested on: TE-7 esophageal cell line; test: Eotaxin-3 mRNA expression after IL-13 stimulation, real-time PCR; format: cell-based, human; settings: TE-7 cells, IL-13 100 ng/mL
[2] = tested on: TE-6 esophageal cell line; test: as above; format: cell-based, human; settings: TE-6 cells, IL-13 100 ng/mL
[3] = tested on: primary esophageal keratinocytes from EE patients; test: IL-13-induced eotaxin expression ex vivo, real-time PCR; format: cell-based, human
Source text: (§1) Briefly, biopsies were digested with trypsin twice.

[4] = tested on: TE-13 esophageal cell line; test: Eotaxin-3 mRNA expression after IL-13 stimulation, real-time PCR; format: cell-based, human; settings: TE-13 cells, IL-13 100 ng/mL
TE-7 cells [5] = test: Eotaxin-3 protein released in culture supernatant, ELISA; format: cell-based, human; settings: IL-13 100 ng/mL for 24 hours
Procedure: (§2) Eotaxin-1, 2 and 3 Duo set ELISA were performed according to the manufacturer's instruction (R&D) and as previously described Blanchard, C. et al., (2006) J. Clin. Invest. 116: 536-547. IL-13 Quantikine® Kit (R&D) was used to quantify IL-13 protein levels. The detection limits were respectively […] for eotaxins-1, -2, -3 and IL-13, respectively. The optical density of each well was read at a wavelength of 450 nm.

TE-13 cells = test: as above; format: cell-based, human; settings: IL-13 100 ng/mL for 24 hours
Procedure: as §2

[6] = tested on: TE-1 esophageal cell line; test: Eotaxin-3 mRNA expression after IL-13 stimulation, real-time PCR; format: cell-based, human; settings: TE-1 cells, IL-13 100 ng/mL
[7] = tested on: primary esophageal epithelial cells from patients with EE; test: Global transcript-expression profile (microarray) of IL-13-stimulated primary cells; format: cell-based, human
Procedure: as §1
For each patient, one distal esophageal mucosal biopsy sample was immersed in RNA, later RNA stabilization reagent (Qiagen) and stored at 4 C. for <15 days. Total RNA was extracted using the RNAeasy Mini Kit (Qiagen) according to the manufacturer's recommendations. Hybridization to DNA microarray was performed by the MicroarrayCore at Cincinnati Children's Hospital Medical Center, as previously reported Blanchard, C. et al., (2006) J. Clin. Invest. 116: 536-547. The genome wide human Affymetrix U133A plus 2.0 Genechip® was used, and gene transcript levels were determined using algorithms in the Microarray Analysis Suite and GeneSpring software (Silicon Genetics) as previously described Blanchard, C. et al., (2006) J. Clin. Invest. 116: 536-547. […] Response to therapy was defined as <1 eosinophils/high power field (hpf) and no epithelial cell hyperplasia as described herein.
The list of differentially expressed transcripts was subjected to gene ontology analysis using DAVID (database for annotation, visualization and integrated discovery) and EASE (expression analysis systematic explorer), a web-based (hyper text transfer protocol davidabccncifcrfgov) application that allows access to a relational database of functional annotations.
Primary esophageal epithelial cells from the esophagi of patients with EE were cultured and stimulated with 100 ng/mL IL-13 for 48 hours to identify IL-13-induced esophageal epithelial genes. The mRNA was subjected to global transcript-expression profile analysis and normalized pair wise to unstimulated controls. Genes were filtered to fold change in biopsy specimens from patients with EE compared with those from healthy patients and IL-13 stimulated epithelial cells. A highly significant positive correlation (P<0.0001, Spearman) between modified genes in biopsy specimens from patients with EE and in IL-13-stimulated keratinocytes was observed (FIG. 4C). […] Blanchard, C. et al., (2006) J. Clin. Invest.

[8] = tested on: primary esophageal keratinocytes from EE patients; test: Eotaxin-3 protein release into supernatant ex vivo, ELISA; format: cell-based, human; settings: IL-13 100 ng/mL
Procedure: as §1, §2

human eotaxin-3 promoter = test: Eotaxin-3 promoter luciferase reporter in transfected TE-7 cells, IL-13 stimulation; format: cell-based
Procedure: (§3) Plasmids were constructed or obtained as described before Blanchard, C. et al., (2005) Int. J. Biochem Cell Biol. 37: 2559-2573. Briefly, plasmid denoted P800, P500 and P100 contained respectively the first 800 by 500 by or 100 by of the human eotaxin-3 gene promoter (pEO3) subcloned into KpnI/HindIII-digested pGL3-Basic (Promega) as previously described Blanchard, C. et al., (2005) Int. J. Biochem. Cell Biol. 37: […]. Directed mutagenesis of the eotaxin-3 promoter was performed using Quickchange Kit from Stratagene according to the manufacturer's instructions using 2 primer sets: (first set) 5′-CCCAACCACAAGAAggtacc[…]-3′ and 5′-[…] ggtacc TTCTGTGGTTGGG-3′ which include a KpnI restriction site in the -89 TTCtctcgGAA STAT6 consensus site and (second set) 5′-GTAACTTAGTTCAG ggatcc […]-3′ and 5′-[…] ggatcc CTGAACTAAGTTAC-3′ which include a […] restriction site in the -698 TTCactgGAA STAT6 consensus site. The STAT6:ER plasmid was constructed in the pCDNA3 plasmid as previously described Kamogawa, Y. et al., (1998) J. Immunol. 161:1074-1077.
Approximately 10^4 TE-7 cells per well (24 well plate) were plated on day 1 and transfected by Lipofectamine™ reagent on day 2. Briefly, […] of reporter plasmids were mixed with 3 μl of Lipofectamine™ reagent in […] of serum-free RPMI medium. In all transfection experiments, a plasmid with a Renilla luciferase reporter gene under the control of a thymidine kinase promoter (pHRL-TK, […]) was used as an internal control. In co-transfection experiments with DNSTAT6 or pCDNA3-STAT6:ER (ER-estrogen receptor) plasmids, the empty vectors pCEFL HA or pCDNA3 were added to each set of transfections, respectively, to ensure that each well received the same amount of DNA. Complete medium (0.5 mL) was added and cells were incubated for 48 h to 72 h. The transfection mixture was then replaced with fresh complete medium for an additional 12 h period before cytokine treatment. […] Cells were then lysed and the Firefly and Renilla luciferase activities were measured in a luminometor (Microlite, Dynatec Laboratories, Inc) using the Dual Luciferase Reporter assay system (Promega) in accordance with the manufacturer's instructions.
Immunol. 42: 295-303; Hoeck, J. and Woisetschlager, M., (2001) J. Immunol. 167: 3216-3222; Yuan, Q. et al., (2006) Eur. J. Immunol. 36: 2700-2714. To determine the STAT6 element or elements involved in the eotaxin-3 stimulation observed in esophageal cell lines, the TE-7 cell line was transiently transfected with the full-length eotaxin luciferase reporter plasmid and truncated versions (FIG. 3). […] The TE-7 cell line was transfected with truncated promoter constructs or with a full-length promoter containing specific mutations within the STAT6 binding sites to map the relevant cis-acting promoter sequences (FIG. 3B).

TE-7 cells [9] = test: Eotaxin-3 mRNA stability with actinomycin-D; format: cell-based, human
STAT6:ER = test: Eotaxin-3 promoter luciferase reporter in TE-7 cells cotransfected with STAT6:ER; format: cell-based, human; settings: TE-7 cotransfected with eotaxin-3 promoter construct and STAT6:ER, within 24 hours
Procedure: as §3, with “The STAT6:ER plasmid was constructed in the pCDNA3 plasmid as previously described Kamogawa, Y. et al., (1998) J. Immunol. 161:1074-1077.” left out
Approximately 10^4 TE-7 cells per well (24 well plate) were plated on day 1 and transfected by Lipofectamine™ reagent on day 2. […] Cells were then lysed and the Firefly and Renilla luciferase activities were measured in a luminometor (Microlite, Dynatec Laboratories, Inc) using the Dual Luciferase Reporter assay system (Promega) in accordance with the manufacturer's instructions. […]

[10] = IL-13 100 ng/mL, 48 hours, P<0.05

For “IL-13: cytokine Interleukin 13 (Preprotech) added to culture media to stimulate esophageal cells”, the “Eotaxin-3 mRNA expression increase” value [1] was 77 fold, the “Eotaxin-3 mRNA expression increase” value [2] was 8 fold and the “increase of eotaxin-3 mRNA expression” value ([3]; 48 hours after 10 ng/mL IL-13) was 1000 fold. The “increase of eotaxin-3 mRNA expression” value ([3]; 48 hours after 100 ng/mL IL-13) was 10.000 fold, the “Eotaxin-3 mRNA expression increase” value [4] was 1007 fold and the “eotaxin-3 released in the supernatant” value (TE-7 cells [5]) was 2.5 ± 0.7 µg/mL. The “eotaxin-3 released in the supernatant” value (TE-13 cells) was 0.55 ± 0.37 µg/mL, the “Eotaxin-3 mRNA expression increase” value [6] was 4 fold and the “genes downregulated by 2-fold or greater” value ([7]; IL-13 100 ng/mL, 48 hours) was 116 genes. The “genes downregulated by more than 1.5-fold” value ([7]; IL-13 100 ng/mL, 48 hours) was 553 genes, the “genes modified by 2-fold or greater” value ([7]; IL-13 100 ng/mL, 48 hours) was 371 genes and the “genes modified by more than 1.5-fold” value ([7]; IL-13 100 ng/mL, 48 hours) was 1333 genes. The “genes significantly modified compared with unstimulated cells (P<0.01)” value ([7]; IL-13 100 ng/mL, 48 hours) was 952 genes, the “genes significantly modified compared with unstimulated cells (P<0.05)” value ([7]; IL-13 100 ng/mL, 48 hours) was 4698 genes and the “genes upregulated by 2-fold or greater” value ([7]; IL-13 100 ng/mL, 48 hours) was 255 genes. For the same compound, the “genes upregulated by more than 1.5-fold” value ([7]; IL-13 100 ng/mL, 48 hours) was 780 genes, the “IL-13-induced genes overlapping with the EE transcriptome” value [7, 10] was 126 genes and the “share of the EE transcriptome overlapped by IL-13-induced genes” value [7, 10] was 22%. For the same compound, the “involucrin downregulation (microarray)” value ([7]; IL-13-stimulated cells) was 4.8 fold, the “TNFAIP6 expression (microarray)” value ([7]; IL-13-stimulated keratinocytes) was “highly overexpressed” and the “cadherin-26 upregulation (microarray)” value ([7]; IL-13-stimulated keratinocytes) was 50 fold. The “eotaxin-3 upregulation (microarray)” value ([7]; IL-13-stimulated keratinocytes) was 279 fold, the “eotaxin-1 and eotaxin-2 expression (microarray)” value ([7]; IL-13-treated primary keratinocyte cultures) was “not overexpressed” and the “release of eotaxin-3 protein into the supernatant” value [8] was 6.03 ± 0.8 ng/mL. The “increase of luciferase activity, full-length reporter plasmid” value (human eotaxin-3 promoter; TE-7, IL-13 10 ng/mL) was 2.7+/−0.8 fold, the “increase of luciferase activity, full-length reporter plasmid” value (human eotaxin-3 promoter; TE-7, IL-13 100 ng/mL) was 10.8+/−2.2 fold and the “IL-13-induced luciferase activity, construct with mutated -89 binding site” value (human eotaxin-3 promoter; TE-7, after IL-13 stimulation) was “no increase in luciferase activity”. For the same compound, the “IL-13-induced promoter activity, construct P100 (truncated proximal STAT6 site)” value (human eotaxin-3 promoter; TE-7, after IL-13 stimulation) was “no activity”, the “IL-13-induced promoter activity, promoter containing 800 or 500 bp” value (human eotaxin-3 promoter; TE-7, after IL-13 stimulation) was “full IL-13-induced activity” and the “stability of eotaxin-3 mRNA, IL-13 treated versus non-treated” value (TE-7 cells [9]) was “not significantly different”.

In the case of CC/C(=C(\c1ccc(O)cc1)c1ccc(OCCN(C)C)cc1)c1ccccc1 [4-hydroxytamoxifene], the “induction of eotaxin-3 promoter luciferase activity” value (STAT6:ER) is reported as “significant (P<0.01) induction”.
